Experimental data from publication PMC10610134, “Verubulin (Azixa) Analogues with Increased Saturation: Synthesis, SAR and Encapsulation in Biocompatible Nanocontainers Based on Ca^2+ or Mg^2+ Cross-Linked Alginate” (Pharmaceuticals, 2023).

Tests used:
[1] = system: immortalized lung fibroblast cell line VA13 (WI38 subline 2RA); assay: MTT cytotoxicity assay, VA13; assay type: cell-based; conditions: Homo sapiens, VA-13; 64 h treatment, MTT; read-out: IC50, nM VA13
Text: (§1) The obtained series of verubulin analogues 2a–r (which also included three by-products isolated in the reactions according to Scheme 2) were initially evaluated for cytotoxicity against commonly used human breast cancer cell line MCF7′ (fast-growth subclone), human lung epithelial carcinoma cell line A549 and etiologically non-cancer immortalized lung fibroblast cell line VA13 (WI38 subline 2RA). Cytotoxicity against immortalized human embryonic kidney cell line HEK293T, characterized by a high growth rate, was also studied regarding cytotoxicity against non-cancerous fast-growth cells. A standard MTT assay was performed; verubulin (1) served as a positive reference. The data obtained are presented in Table 1 (for dose–response curves, see Supplementary Materials).
(§2) Human breast cancer cell line MCF7′ and human lung adenocarcinoma cell line A549 were kindly provided by Dr. S. Dmitriev (Lomonosov Moscow State University), immortalized human fibroblast cell line VA13 (WI38 subline 2RA) was kindly provided by Dr. M. Rubtsova (Lomonosov Moscow State University), human embryonic kidney HEK293T cell line was kindly provided by Dr. E. Knyazhanskaya (Lomonosov Moscow State University). MCF7′, VA13, A549 and HEK293T cell lines were maintained in DMEM/F-12 (Thermo Fisher Scientific, Waltham, MA, USA) culture medium containing 10% fetal bovine serum (Thermo Fisher Scientific, Waltham, MA, USA) and 50 μg/mL penicillin and 0.05 mg/mL streptomycin at 37 °C (Thermo Fisher Scientific, Waltham, MA, USA) in 5% CO2. Cells were maintained at 37 °C in a humidified MCO-18AC incubator (Sanyo, Tokyo, Japan) supplied with 5% CO2. Cell cultures were tested for the absence of mycoplasma and validated by STR.
(§3) The cytotoxicity of the substances was tested using the 3-(4,5-dimethylthiazol-2-yl)2,5-diphenyl tetrazolium bromide (MTT) assay with some modifications. A total of 2500 cells per well for the MCF7′, HEK293T, A549 cell lines or 4000 cells per well for the VA-13 cell line were plated out in 135 μL of DMEM-F12 media (Gibco, Thermo Fisher Scientific, Waltham, MA, USA) in a 96-well plate and incubated in the 5% CO2 incubator for the first 20 h without treatment. Then, 15.8 μL of media–DMSO solutions of tested substances (final DMSO concentrations in the media were 0.5% or less) was added to the cells (triplicate each) and cells were treated for 64 h with 0.023 mg/L–50 mg/L (eight dilutions) of compounds 2f,n,o,r; 1.14 μg/L–2.5 mg/L (eight dilutions) of compounds 2a,b,d,g,h,k,l,p,q; 57.2 ng/L–125 μg/L (eight dilutions) of compounds 2e,i,j; 22.9 ng/L–50 μg/L (eight dilutions) of compounds 1,2c,m. Doxorubicin was used as a control substance. Then, the MTT reagent (Paneco LLC, Moscow, Russia) was added to cells up to a final concentration of 0.5 g/L (10 × stock solution in PBS was used) and incubated for 2 h at 37 °C in the incubator, under an atmosphere of 5% CO2. Then, the MTT solution was discarded, and 140 μL of DMSO (PharmaMed LLC, Moscow, Russia) was added. The plates were swayed on a shaker (120 rpm) to dissolve the formazan. The absorbance was measured using a microplate reader (VICTOR X5 Light Plate Reader, PerkinElmer, Waltham, MA, USA) at a wavelength of 555 nm (in order to measure formazan concentration). The results were used to construct dose–response graphs and to estimate IC50 values (IC50 is the concentration resulting in half of the maximal cytotoxic effect) with GraphPad Prism V, GraphPadSoftware, Inc., San Diego, CA, USA.

[2] = system: HCT116 cells; assay: Apoptosis induction, Annexin V / 7-AAD flow cytometry; assay type: cell-based, human
Experimental: Apoptosis is an important and active regulatory pathway of cell growth and proliferation. Annexin V is a calcium-dependent phospholipid-binding protein with a high affinity for phosphatidylserine (PS), a membrane component normally localized to the internal face of the cell membrane. Early in the apoptotic pathway, molecules of PS are translocated to the outer surface of the cell membrane where Annexin V can readily bind them.
After incubation, the cells were harvested by trypsinization, precipitated by centrifugation (3000 rpm), washed with cold PBS and recentrifuged. Aliquots of cells were processed as recommended in the Muse Annexin V& Dead Cell Kit (Luminex Corporation, Austin, TX, USA). The results were recorded on a Muse Cell Analyzer flow cytometer (Merck, Rahway, NJ, USA).

[3] = system: human lung epithelial carcinoma cell line A549; assay: MTT cytotoxicity assay, A549; assay type: cell-based; conditions: A549, 64 h treatment, MTT, read-out: IC50, nM A549
Text: as §1, §2, §3

[4] = system: MCF7′, A549, VA13, HEK293T cell lines; assay: MTT cytotoxicity, SAR statements over the cell line panel; assay type: cell-based, human
Text: as §1, §3

[5] = system: HCT116 cell line; assay: MTT cytotoxicity towards HCT116; assay type: cell-based, human; conditions: HCT-116; HCT116, human colon carcinoma; read-out: IC50
[6] = system: human breast cancer cell line MCF7′; assay: MTT cytotoxicity assay, MCF7′; assay type: cell-based; conditions: MCF7, 64 h treatment, MTT, read-out: IC50, nM MCF7′
Text: as §1, §2, §3

[7] = system: microtubules in carcinoma A549 cells; assay: Immunofluorescent microscopy of microtubules; assay type: cell-based, human; conditions: 24 h, A549
Experimental: Since verubulin is known to stimulate microtubule disassociation, we performed an immunofluorescent microscopy study to determine the response of microtubule dynamics in carcinoma A549 cells to the treatment with representative compounds 2b,c,e. […] Aberrant cell morphology—contraction and rounding (Figure 2A,B) or contraction and elongation (Figure 2C)—was also observed.
A549 cells were seeded on coverslips (treated with poly-l-lysine at a concentration of 33 mg/L for an hour). Compounds were added up to the corresponding concentration after 24 h attachment and growth of the cells. Then, cells were incubated 24 h.
The cells were fixed with methanol (precooled in liquid nitrogen for 20 min), no additional permeabilization was performed. To prevent non-specific binding, cells were incubated with 4% BSA in PBS for one hour. Then, a solution of mouse monoclonal antibodies against alpha-tubulin cross-linked with Alexa 488 fluoroform (Thermo Fisher Scientific, Waltham, MA, USA, 32-2588) at a concentration of 5 μg/mL in 1% BSA solution in PBS was added to the cells, and the slides were incubated at +5 °C in a water chamber for 24 h. After the end of the incubation time, the cells were washed several times with PBS buffer solution and fixed on a glass slide with Moviol. Next day, cells were imaged with a ZEISS LSM 900 (ZEISS Microscopy, GmbH, Germany) and images processed with ImageJ.

[8] = system: tubulin (Tb) and microtubule-associated proteins (MAPs) from mouse brains; assay: Tubulin + MAP polymerization assay; assay type: biochemical; conditions: GTP-dependent polymerization, read-out: IC50 of tubulin polymerization (initial rates, optical density at 355 nm)

- IC50 [8]: 7200 ± 1900 nM
SMILES: COc1ccc(N(C)c2nc(C)nc3c2CCCC3)cc1 [Compound 2c, N-(4-methoxyphenyl)-N,2-dimethyl-5,6,7,8-tetrahydroquinazolin-4-amine]
- IC50 [1]: 1.6 ± 0.4 nM
- apoptotic cells, early plus late ([2]; 2 × IC50, 48 h, HCT116): 30%
- Live (viable cells) ([2]; human, 48 h): 69.45%
- IC50 [3]: 2.7 ± 0.4 nM
- cytotoxicity, in words ([4]; MTT, 64 h): retained high cytotoxicity of the parent molecule
- selectivity towards tumor cells ([4]; pair A549/VA13): no selectivity
- IC50 [5]: 0.2 ± 0.01 nM
- IC50 [6]: 3.6 ± 0.4 nM
- effect on microtubules (MTs) ([7]; 10 μM): full depolymerization of MTs
- effect on microtubules ([7]; 5–10 μM): pronounced or complete disruption of microtubules
